One may read the IC50 as the concentration needed to halve the response being measured. A high value points to a need for much substance.

FAS, sequence (P49327 whole entry): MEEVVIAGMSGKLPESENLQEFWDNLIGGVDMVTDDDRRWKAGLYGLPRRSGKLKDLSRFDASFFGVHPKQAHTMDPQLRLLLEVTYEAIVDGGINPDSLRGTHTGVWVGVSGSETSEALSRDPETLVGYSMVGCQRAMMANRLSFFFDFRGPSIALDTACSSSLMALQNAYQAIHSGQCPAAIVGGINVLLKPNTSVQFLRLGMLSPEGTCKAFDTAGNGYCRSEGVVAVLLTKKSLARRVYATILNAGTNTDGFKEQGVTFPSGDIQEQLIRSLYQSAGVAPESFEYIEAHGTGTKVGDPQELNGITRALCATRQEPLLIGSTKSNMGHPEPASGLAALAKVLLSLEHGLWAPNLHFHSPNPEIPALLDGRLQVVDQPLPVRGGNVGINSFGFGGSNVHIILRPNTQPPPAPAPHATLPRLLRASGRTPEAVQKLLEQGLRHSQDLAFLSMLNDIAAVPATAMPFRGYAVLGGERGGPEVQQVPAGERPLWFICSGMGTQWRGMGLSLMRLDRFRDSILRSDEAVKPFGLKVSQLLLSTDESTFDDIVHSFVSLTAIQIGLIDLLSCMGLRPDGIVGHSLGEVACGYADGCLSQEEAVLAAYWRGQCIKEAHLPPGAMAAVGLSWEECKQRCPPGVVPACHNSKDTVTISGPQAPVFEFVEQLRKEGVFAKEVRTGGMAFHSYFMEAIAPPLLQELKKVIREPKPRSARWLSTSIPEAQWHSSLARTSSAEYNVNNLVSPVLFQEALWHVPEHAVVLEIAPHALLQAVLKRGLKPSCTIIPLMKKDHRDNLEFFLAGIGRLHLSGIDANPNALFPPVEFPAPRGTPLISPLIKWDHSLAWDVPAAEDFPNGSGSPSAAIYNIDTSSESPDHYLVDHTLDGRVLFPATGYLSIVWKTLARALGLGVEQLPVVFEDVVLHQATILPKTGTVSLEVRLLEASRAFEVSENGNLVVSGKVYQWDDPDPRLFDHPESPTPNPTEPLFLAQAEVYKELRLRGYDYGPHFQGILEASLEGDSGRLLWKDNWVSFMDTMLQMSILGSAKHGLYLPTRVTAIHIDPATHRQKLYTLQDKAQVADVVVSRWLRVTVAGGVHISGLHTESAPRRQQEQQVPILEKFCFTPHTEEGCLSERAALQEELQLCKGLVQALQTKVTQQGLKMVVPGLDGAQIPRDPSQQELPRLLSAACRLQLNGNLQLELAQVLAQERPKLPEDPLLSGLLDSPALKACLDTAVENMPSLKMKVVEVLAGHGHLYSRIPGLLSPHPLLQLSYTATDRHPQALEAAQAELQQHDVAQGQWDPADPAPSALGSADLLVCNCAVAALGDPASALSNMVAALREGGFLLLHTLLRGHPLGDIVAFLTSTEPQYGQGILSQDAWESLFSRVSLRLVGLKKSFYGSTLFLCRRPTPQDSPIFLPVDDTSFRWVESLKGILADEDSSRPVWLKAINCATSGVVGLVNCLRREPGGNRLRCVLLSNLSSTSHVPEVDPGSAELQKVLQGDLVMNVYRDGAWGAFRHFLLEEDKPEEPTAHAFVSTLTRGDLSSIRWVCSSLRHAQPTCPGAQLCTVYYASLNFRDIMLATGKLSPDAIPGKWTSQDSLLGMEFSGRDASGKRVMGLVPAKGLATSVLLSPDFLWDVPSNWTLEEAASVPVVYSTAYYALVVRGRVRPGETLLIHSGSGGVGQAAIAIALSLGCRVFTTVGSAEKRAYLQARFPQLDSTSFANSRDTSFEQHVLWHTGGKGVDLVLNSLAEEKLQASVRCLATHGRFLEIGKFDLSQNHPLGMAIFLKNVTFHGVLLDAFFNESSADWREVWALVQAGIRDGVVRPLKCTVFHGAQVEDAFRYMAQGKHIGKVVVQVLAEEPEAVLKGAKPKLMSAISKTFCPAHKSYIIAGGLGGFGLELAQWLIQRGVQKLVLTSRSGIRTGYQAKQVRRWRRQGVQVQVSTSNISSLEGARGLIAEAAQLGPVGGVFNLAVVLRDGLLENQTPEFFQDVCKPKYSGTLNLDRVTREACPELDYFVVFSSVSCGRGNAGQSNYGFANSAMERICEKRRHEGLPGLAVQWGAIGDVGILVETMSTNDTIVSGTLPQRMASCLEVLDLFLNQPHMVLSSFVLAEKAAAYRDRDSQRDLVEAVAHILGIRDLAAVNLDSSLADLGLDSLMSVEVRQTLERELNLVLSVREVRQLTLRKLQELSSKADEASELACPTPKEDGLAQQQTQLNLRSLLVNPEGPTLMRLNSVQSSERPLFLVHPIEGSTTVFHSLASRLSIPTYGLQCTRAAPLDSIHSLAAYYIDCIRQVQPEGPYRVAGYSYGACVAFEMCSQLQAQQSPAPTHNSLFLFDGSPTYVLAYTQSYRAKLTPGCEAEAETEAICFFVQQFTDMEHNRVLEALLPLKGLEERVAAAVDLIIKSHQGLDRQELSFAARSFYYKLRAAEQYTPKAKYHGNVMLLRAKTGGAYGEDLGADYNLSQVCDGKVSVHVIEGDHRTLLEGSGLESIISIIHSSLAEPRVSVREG

This test deals with FAS (Homo sapiens, UniProt P49327). Briefly: FAS activity inhibition (Assay #1 residual NADPH/resazurin or Assay #2 CoA/CPM thio-reactive dye). It is filed as biochemical. The note with it: measured through one of the two assays, at least one experiment or the average of multiple experiments. How it is done:
FAS activity was measured through one of the two following assays.
Inhibition of FAS activity can be measured based on the detection of residual NADPH substrate after the FAS assay is quenched. This assay is run as a 10 μL endpoint assay in 384-well format, where the reaction contains 20 μM malonyl-CoA, 2 μM acetyl-CoA, 30 μM NADPH and 40 nM FAS in 50 mM sodium phosphate, pH 7.0. The assay is run by sequentially dispensing 5 μl of a malonyl-CoA solution, then enzyme solution Containing the acetyl-CoA, and NADPH) into a black, low volume assay plate (Greiner 784076) pre-dispensed with 100 nL compound solutions in DMSO. The reaction is incubated at ambient temperature for 60 minutes, then quenched with 5 μL, of a developing solution composed of 90 μM resazurin, 0.3 IU/ml diaphorase in 50 mM sodium phosphate, pH 7.0. The developed reaction is read on a Molecular Devices Analyst or Acquest (or equivalent) plate reader using a 530 nm excitation wavelength filter, a 580 nm emission filter, and 561 nm dichroic filter. The test compounds are prepared in neat DMSO at a concentration of 10 mM. For inhibition curves, compounds are diluted using a three fold serial dilution and tested at 11 concentrations (e.g. 25 μM-0.42 nM). Curves are analysed using ActivityBase and XLfit, and results are expressed as pIC50 values.
Inhibition of FAS can also be quantified based on the detection of the CoA products with a thio-reactive coumarin dye. This assay is run as a […] assay in 384-well format, where the reaction contains 20 μM malonyl-CoA, 20 μM acetyl-CoA, 40 μM NADPH and 2 nM FAS in 50 mM sodium phosphate, pH 7.0, and 0.04% Tween-20. The assay is run by adding […] enzyme solution to a black, low volume assay plate (Greiner 784076) pre-dispensed with 100 nl compound solutions in DMSO. After 30 minutes, 5 μL substrate is added, and the reaction incubated at ambient temperature for an additional 60 minutes. The reaction is then quenched with 100 μL of 6M guanidine-HCl containing 50 μM CPM (7-diethylamino-3-(4′-maleimidylphenyl)-4-methylcoumarin CPM; thio-reactive dye), and incubated for 30 minutes. The plate is read on an Envision (PerkinElmer) or equivalent plate reader using a 380 nm excitation wavelength filter, and a 486 nm emission filter. Data fitting and compound preparations are done as described above.
In turn, `O=C1COC2(CCN(C(CO)c3ccc(-c4ccc5cccnc5c4)cc3)CC2)CN1C1CC1` (racemic) [Example 22, 4-cyclopropyl-9-(2-hydroxy-1-(4-(quinolin-7-yl)phenyl)ethyl)-1-oxa-4,9-diazaspiro[5.5]undecan-3-one] showed an IC50 of 20 nM. Compound `COc1c(-c2ccc(C(C(N)=O)N3CCC4(CC3)CN(C3CC3)C(=O)CO4)c(F)c2)ccc2cccnc12` (single isomer, unassigned; (-)) [Example 78, (−)-2-(4-cyclopropyl-3-oxo-1-oxa-4,9-diazaspiro[5.5]undecan-9-yl)-2-(2-fluoro-4-(8-methoxyquinolin-7-yl)phenyl)acetamide] registered an IC50 of 4 nM.

`COc1ccc(-c2ccc(C(C(N)=O)N3CCC4(CC3)CN(C3CC3)C(=O)CO4)c(F)c2)cc1` (centres unmarked) [Example 33, 2-(4-cyclopropyl-3-oxo-1-oxa-4,9-diazaspiro[5.5]undecan-9-yl)-2-(3-fluoro-4′-methoxy-[1,1′-biphenyl]-4-yl)acetamide]: the IC50 worked out at 200 nM.

`O=C(O)CC(c1ccc(-c2ccc3cccnc3c2)cc1)N1CCC2(CC1)CN(C1CC1)C(=O)CO2` (centres unmarked) [Example 6, 3-(4-cyclopropyl-3-oxo-1-oxa-4,9-diazaspiro[5.5]undecan-9-yl)-3-(4-(quinolin-7-yl)phenyl)propanoic acid] gave an IC50 of 501 nM. `NC(=O)C(c1ccc(-c2ccc3cccnc3c2)cc1F)N1CCC2(CC1)CN(C1(CO)CC1)C(=O)CO2` (single isomer, unassigned; (-)) [Example 30, (−)-2-(2-fluoro-4-(quinolin-7-yl)phenyl)-2-(4-(1-(hydroxymethyl)cyclopropyl)-3-oxo-1-oxa-4,9-diazaspiro[5.5]undecan-9-yl)acetamide] displayed an IC50 of 3 nM. The value for `CC(c1ccc(-c2ccc3cccnc3c2)cc1)N1CCC2(CC1)CN(C1CC1)C(=O)CO2` (centres unmarked) [Example 13, 4-cyclopropyl-9-(1-(4-(quinolin-7-yl)phenyl)ethyl)-1-oxa-4,9-diazaspiro[5.5]undecan-3-one] was 50 nM; that for `NC(=O)C(c1ccc(-c2ccc3cccnc3c2)cc1F)N1CCC2(CC1)CN(C1CC1)C(=O)CO2` (single isomer, unassigned; (+)) [Example 9, (+)-2-(4-cyclopropyl-3-oxo-1-oxa-4,9-diazaspiro[5.5]undec-9-yl)-2-[2-fluoro-4-(7-quinolinyl)phenyl]acetamide] was 3 nM. The value for `NC(=O)C(c1c(F)cc(-c2ccc3cccnc3c2)cc1F)N1CCC2(CC1)CN(C1CC1)C(=O)CO2` (single isomer, unassigned; (+)) [Example 73, (+)-2-(4-cyclopropyl-3-oxo-1-oxa-4,9-diazaspiro[5.5]undecan-9-yl)-2-(2,6-difluoro-4-(quinolin-7-yl)phenyl)acetamide] was 1 nM.

These data come from patent US9084794B2, “Fatty acid synthase inhibitors” (GlaxoSmithKline Intellectual Property (No. 2) Limited, priority 2011, dated 2015).
